Results published in patent US20250049970A1, “DLL3 TARGETING PEPTIDES AND CONSTRUCTS THEREOF” (MARIANA ONCOLOGY INC., priority 2023, published 2025).
pKd: −log10 of the molar value. Where two headings read alike, the source gives them in different places. *1 amine or outer side, *2 acyl side, *3 side chain or, on linkers, in order; H or OH if unused. Where a SMILES comes first, the peptide text is derived from it. Bridges are numbered along the chain shown (N, C = ends). [ ]: non-standard residue; d: D form. The star is where a group is joined. ξ: configuration not given here. Ala(piperidin-4-yl) = O=C([C@H](CC1CCN([*:3])CC1)N[*:1])[*:2]; DOTA = O=C(O)CN1CCN(CC(=O)O)CCN(CC(=O)*)CCN(CC(=O)O)CC1; X2 = O=C(Cc1ccc(I)cc1)NCCOCCOCCOCCOCCOCCOCCOCCOCC(=O)*; 2Nal = N[C@@H](Cc1ccc2ccccc2c1)C(=O)O; NMetBuAla = CN[C@@H](CC(C)(C)C)C(=O)O; Thr(3ξ) = CC(O)[C@H](N)C(=O)O; Chg = N[C@H](C(=O)O)C1CCCCC1; NMeNle = CCCC[C@H](NC)C(=O)O; αMeP = C[C@@]1(C(=O)O)CCCN1; CH2 = C([*:1])[*:2]

Tests used:
SHP-77 cells [1] = assay: Cell binding (total uptake) of [177Lu]Lu-labeled peptide, SHP-77 cells; format: cell-based; conditions: 1 h, 37° C.
Protocol: (§1) [^177Lu]LuCl3 was received from venders in HCl solution. For every mCi of [^177Lu]LuCl3 added to the reaction vial (1.5 mL Eppendorf vial), ammonium acetate buffer (0.2 M, pH 4.9, 100 μL, containing 1% w/v ascorbic acid and 6% v/v ethanol) and peptide conjugate (1 nmol; also referred to herein as “chelator-peptides”) was added. The pH of the solution was determined to be approximately 5 by using pH strips. The reaction vial was incubated at 80° C., 700 RPM for 17-20 minutes. A sample from the reaction was analyzed by RP-HPLC using an Agilent Infinity II 1260 HPLC to determine reaction completion and radiochemical purity of [^177Lu]Lu-chelator-peptides. HPLC conditions: Waters XBridge BEH C18 Column, 130A, 3.5 μm, 4.6 mm×250 mm; mobile phase: Solvent A=water (with 0.1% formic acid), solvent B=acetonitrile (with 0.1% formic acid). Gradients: 25-45% B in 10 minutes, 45-65% B in 12 minutes, 65-90% in 6 minutes at a flow rate of 0.5 mL/minutes Required amounts of the product was formulated in 1% PBSA for cell studies.
(§2) The study was conducted using SHP-77, CT26.WT, CT26.DLL3, and HEK293.DLL3 cells (Table 9)
(§3) Adherent cell studies: The cells were cultured in appropriate culture media (20 mL) in tissue culture treated T150 flasks at 37° C. and 5% C02. Adherent cells were detached (60-70% confluent) using 5 mL Versene at 37° C. for 3 minutes. After confirming the viability using countess and count of detached cells using Trypan blue, the cells were centrifuged at 4° C. for 5 minutes (1,000 rpm). The cell pellet obtained was washed once with PBS and resuspended in 1% PBSA to obtain the desired cell concentration (5-25 million cells/mL).
as §3, with “Suspension” for “Adherent”, “CO2.” for “C02. Adherent cells were detached (60-70% confluent) using 5 mL Versene at 37° C. for 3 minutes.”, “viability” for “viability using countess”
(§4) Cell numbers used for the assay were in the range of 5 million cells/condition-25 million cells/condition.
(§5) Total uptake: Cells were incubated with 300 μL (0.8 μCi) of the incubation buffer (containing radiolabeled peptide [^177Lu]Lu-test peptide) for 1 hour at 37° C. (Table 10). Post incubation, the cells were pelleted and washed 2 times using cold PBS+1% BSA. The supernatant and washes were combined and counted together as “unbound fraction” in a gamma counter. The cells were then resuspended in 300 μL of 1% PBS+1% BSA and counted in the gamma counter as “bound fraction”.
(§6) In these Tables, “A” represents % s ≤25; “B” represents 25 <% ≤50; “C” represents % >50.

[2] = test system: nude mice bearing SHP-77 tumors; assay: Ex vivo biodistribution of radiolabeled peptides (% IA/g) in nude mice bearing SHP-77 tumors; conditions: [177Lu]Lu labelling, 24 hours post-injection, intravenous
Protocol: Mice were intravenously injected (via the lateral tail vein) with a bolus dose of the radiolabeled peptides for ex vivo biodistribution studies when tumor volumes were in range of 200-400 mm^3 for xenograft mice and when age of the mice was 5-7 weeks for tumor naïve mice studies. To assess the amount of radionuclide injected into individual mice the syringe was assayed in a dose calibrator before and after injection for [^177Lu]Lu-peptide, then the injected dose was determined from the weight difference and concentration of the radionuclide solution.
Mice were euthanized at pre-determined time points and selected tissues were resected and collected into pre-weighed tubes. The tubes were then reweighed post resection, the difference giving the weight of each tissue. Radioactivity in each tissue was measured using a gamma counter. Counts were decay corrected to the time of injection and percentage of injected activity per gram (% IA/g) was calculated for each tissue based on the injected activity into each individual mouse. Injected activity was converted to counts based on the sensitivity of the gamma counter. The counts in tissue were then converted to the percentage of injected activity and this was divided by the mass of tissue to give % IA/g.

SHP-77 cells [3] = assay: Internalization of [177Lu]Lu-labeled peptide, SHP-77 cells; format: cell-based; conditions: 1 h, 37° C.
Protocol: as §1, §2, §3
as §3, with “Suspension” for “Adherent”, “CO2.” for “C02. Adherent cells were detached (60-70% confluent) using 5 mL Versene at 37° C. for 3 minutes.”, “viability” for “viability using countess”
as §4
(§7) Internalization: The resuspended cells in 300 μL of 1% PBSA and counted in the gamma counter as “bound fraction” were collected in 1.5 mL Eppendorf tube and pelleted. The pelleted cells were incubated with 300 μL of 50 mM Glycine pH=2.5 for 3 minutes and then pelleted discarding the supernatant. This process was repeated one more time. The pelleted cells were washed with 300 μL of cold 1% PBSA and then resuspended in 300 μl 0.3M NaOH. This was counted in the gamma counter as “internalized fraction”.
as §6

DLL3 = target: T1, DLL3 (Homo sapiens, UniProt Q9NYJ7); assay: SPR KD, biotinylated human DLL3 on streptavidin chip (Table 8); set-up: biotin (biotinylated)
T1 sequence (Q9NYJ7 27-618): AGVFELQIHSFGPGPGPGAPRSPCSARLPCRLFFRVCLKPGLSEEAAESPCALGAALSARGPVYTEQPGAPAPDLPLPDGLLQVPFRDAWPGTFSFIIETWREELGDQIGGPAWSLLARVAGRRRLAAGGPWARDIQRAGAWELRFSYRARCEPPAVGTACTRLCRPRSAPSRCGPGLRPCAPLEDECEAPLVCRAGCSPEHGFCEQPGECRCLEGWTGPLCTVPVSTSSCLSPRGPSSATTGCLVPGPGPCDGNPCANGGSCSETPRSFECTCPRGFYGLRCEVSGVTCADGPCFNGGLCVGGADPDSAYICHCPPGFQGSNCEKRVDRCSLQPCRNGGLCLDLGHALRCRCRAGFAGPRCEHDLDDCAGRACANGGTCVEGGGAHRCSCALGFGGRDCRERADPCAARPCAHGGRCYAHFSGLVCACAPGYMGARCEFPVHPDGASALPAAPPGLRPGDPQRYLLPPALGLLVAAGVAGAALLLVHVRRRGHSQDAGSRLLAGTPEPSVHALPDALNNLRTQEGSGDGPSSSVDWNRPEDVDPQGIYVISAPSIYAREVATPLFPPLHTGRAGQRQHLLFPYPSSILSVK
Excerpt: Biotinylated target ligand human DLL3 was immobilized on a streptavidin sensor chip. A reference surface was set up for nonspecific binding and refractive index changes. […] Sensorgram curves were fitted with 1:1 binding model, and affinity and kinetic parameters were obtained using Biacore Insight evaluation 4.0. software.

CT26.DLL3 cells [4] = assay: Internalization of [177Lu]Lu-labeled peptide, CT26.DLL3 cells; format: cell-based; conditions: 1 h, 37° C.
Protocol: as §1, §2, §3, §4, §7, §6

CT26.DLL3 cells [5] = assay: Cell binding (total uptake) of [177Lu]Lu-labeled peptide, CT26.DLL3 cells; format: cell-based; conditions: 1 h, 37° C.
Protocol: as §1, §2, §3, §4, §5, §6

[6] = biotinylated human DLL3 on streptavidin sensor chip, 25° C., 1:1 binding model; read-out: SPR KD

| kidney uptake (% IA/g) [2] | pKd (DLL3; [6]) | SMILES | % Binding (SHP-77 cells [1]) | tumor uptake (% IA/g) [2] | % Internalization (out of bound fraction) (SHP-77 cells [3]) | % Internalization (out of bound fraction) (CT26.DLL3 cells [4]) | % Binding (CT26.DLL3 cells [5]) | pKd (DLL3; read-out: SPR KD; biotinylated human DLL3 on streptavidin sensor chip, 25° C., 1:1 binding model) |
| --- | --- | --- | --- | --- | --- | --- | --- | --- |
| C (“C” represents 0 < % IA/g ≤ 10 in) | > 9.00 | CC(=O)N[C@@H](Cc1c[nH]c2ccccc12)C(=O)N[C@H](C(=O)N(C)[C@@H](CC(C)(C)C)C(=O)N[C@H]1CSCSC[C@@H](C(=O)N[C@@H](Cc2c[nH]c3ccccc23)C(=O)N2CCC[C@@]2(C)C(N)=O)NC(=O)[C@H](CC(=O)O)NC(=O)[C@H](CCCCNC(=O)CN2CCN(CC(=O)O)CCN(CC(=O)O)CCN(CC(=O)O)CC2)NC(=O)[C@H](Cc2ccc3ccccc3c2)NC(=O)[C@H](CC(N)=O)NC(=O)[C@H](CC2CCNCC2)NC1=O)[C@@H](C)O [compound 236, Ac-W-T-(NMe-tBuAla)-C(1)-[3-(4-piperidinyl)-Ala]-N-(2Nal)-Lys(DOTA)-D-C(1)-W-(aMe-P)-CONH2] (Ac-WT[NMetBuAla]C[Ala(piperidin-4-yl)]N[2Nal]K(DOTA)DCW[αMeP]-NH2; linker 4-10 via CH2) | C (% >50) | B (“B” represents % IA/g > 5 in tumor) | C (% >50) | – | – | – |
| D (“D” represents % IA/g > 10 in kidney) | > 9.00 | CCCC[C@@H](C(=O)N[C@H]1CSSC[C@@H](C(=O)N[C@@H](Cc2c[nH]c3ccccc23)C(=O)N2CCC[C@H]2C(N)=O)NC(=O)[C@H](CC(=O)O)NC(=O)[C@H](CCCCNC(=O)CN2CCN(CC(=O)O)CCN(CC(=O)O)CCN(CC(=O)O)CC2)NC(=O)[C@H](Cc2ccc3ccccc3c2)NC(=O)[C@H](CC(N)=O)NC(=O)[C@H](CC(N)=O)NC1=O)N(C)C(=O)[C@@H](NC(=O)[C@H](Cc1c[nH]c2ccccc12)NC(C)=O)[C@@H](C)O [compound 320, Ac-W-T-(NMe-Nle)-C(3)-N-N-(2Nal)-Lys(DOTA)-D-C(3)-W-P-CONH2] (Ac-WT[NMeNle]CNN[2Nal]K(DOTA)DCWP-NH2; disulfide 4-10) | A (% s ≤25) | A (“A” represents 0 < % IA/g ≤ 5 in tumor) | B (25 <% ≤50) | B (25 <% ≤50) | A (% s ≤25) | – |
| – | > 9.00 | CC(=O)N[C@@H](Cc1c[nH]c2ccccc12)C(=O)N[C@H](C(=O)N[C@H](C(=O)N[C@H]1CSSC[C@@H](C(=O)N[C@@H](Cc2c[nH]c3ccccc23)C(=O)N2CCC[C@H]2C(N)=O)NC(=O)[C@H](CC(=O)O)NC(=O)[C@H](CCCCNC(=O)CN2CCN(CC(=O)O)CCN(CC(=O)O)CCN(CC(=O)O)CC2)NC(=O)[C@H](Cc2ccc3ccccc3c2)NC(=O)[C@H](CC(N)=O)NC(=O)[C@H](CC2CCNCC2)NC1=O)C1CCCCC1)[C@@H](C)O [compound 324, Ac-W-T-(Chg)-C(3)-[3-(4-piperidinyl)-Ala]-N-(2Nal)-Lys(DOTA)-D-C(3)-W-P-CONH2] (Ac-WT[Chg]C[Ala(piperidin-4-yl)]N[2Nal]K(DOTA)DCWP-NH2; disulfide 4-10) | B (25 <% ≤50) | – | B (25 <% ≤50) | C (% >50) | A (% s ≤25) | – |
| C (“C” represents 0 < % IA/g ≤ 10 in) | > 9.00 | CC(=O)NCCCC[C@@H](NC(=O)[C@@H]1CCCN1C(=O)[C@H](Cc1c[nH]c2ccccc12)NC(=O)[C@@H]1CSCSC[C@H](NC(=O)[C@H](CC(C)(C)C)N(C)C(=O)[C@@H](NC(=O)[C@H](Cc2c[nH]c3ccccc23)NC(C)=O)C(C)O)C(=O)N[C@@H](CC2CCNCC2)C(=O)N[C@@H](CC(N)=O)C(=O)N[C@@H](Cc2ccc3ccccc3c2)C(=O)N[C@@H](CCCCNC(=O)CN2CCN(CC(=O)O)CCN(CC(=O)O)CCN(CC(=O)O)CC2)C(=O)N[C@@H](CC(=O)O)C(=O)N1)C(N)=O (stereo partly drawn) [compound 445, Ac-W-T-(NMe-tBuAla)-C(1)-[3-(4-piperidinyl)-Ala]-N-(2Nal)-Lys(DOTA)-D-C(1)-W-P-[D-Lys(Ac)]-CONH2] (Ac-W[Thr(3ξ)][NMetBuAla]C[Ala(piperidin-4-yl)]N[2Nal]K(DOTA)DCWP[dK](Ac)-NH2; linker 4-10 via CH2) | C (% >50) | B (“B” represents % IA/g > 5 in tumor) | C (% >50) | – | – | – |

| SMILES | kidney uptake (% IA/g) [2] | pKd (DLL3; [6]) | % Binding (SHP-77 cells [1]) | tumor uptake (% IA/g) [2] | % Internalization (out of bound fraction) (SHP-77 cells [3]) | % Internalization (out of bound fraction) (CT26.DLL3 cells [4]) | % Binding (CT26.DLL3 cells [5]) | pKd (DLL3; read-out: SPR KD; biotinylated human DLL3 on streptavidin sensor chip, 25° C., 1:1 binding model) |
| --- | --- | --- | --- | --- | --- | --- | --- | --- |
| CC(=O)N[C@@H](Cc1c[nH]c2ccccc12)C(=O)N[C@H](C(=O)N[C@H](C(=O)N[C@H]1CSCSC[C@@H](C(=O)N[C@@H](Cc2c[nH]c3ccccc23)C(=O)N2CCC[C@H]2C(=O)N[C@H](CCCCNC(=O)COCCOCCOCCOCCOCCOCCOCCOCCNC(=O)Cc2ccc(I)cc2)C(N)=O)NC(=O)[C@H](CC(=O)O)NC(=O)[C@H](CCCCNC(=O)CN2CCN(CC(=O)O)CCN(CC(=O)O)CCN(CC(=O)O)CC2)NC(=O)[C@H](Cc2ccc3ccccc3c2)NC(=O)[C@H](CC(N)=O)NC(=O)[C@H](CC2CCNCC2)NC1=O)C1CCCCC1)[C@@H](C)O [compound 417] (Ac-WT[Chg]C[Ala(piperidin-4-yl)]N[2Nal]K(DOTA)DCWP[dK](X2)-NH2; linker 4-10 via CH2) | D (“D” represents % IA/g > 10 in kidney) | – | – | B (“B” represents % IA/g > 5 in tumor) | – | B (25 <% ≤50) | B (25 <% ≤50) | > 9.00 |
